Results as given in patent US20240092757A1, “HETEROARYL DIAMIDE IRE1/XBP1s ACTIVATORS” (Protego Biopharma, Inc., priority 2021, published 2024).
Counter-ions that a name gives are not always drawn.

What follows are molecules tested on IRE1-XBP1s (assay: IRE1-XBP1s activation Assay (XBP1-RLuc splicing reporter, HEK293 T-REx cells)). Details: compound 10 μM, 18 h, HEK293 T-REx cells stably expressing XBP1-RLuc splicing reporter, relative to thapsigargin (Tg) 500 nM, read-out: Activity (IRE1-XBP1s Activation; luminescence as percentage signal relative to thapsigargin).
Assay type: cell-based
Description: IRE1-XBP1s activation Assay: HEK293 T-REx cells stably expressing the XBP1-RLuc splicing reporter were treated with an IRE1—XBP1s activator provided herein (10 μM) in the presence or absence of the IRE1 active site inhibitor 4 μ8C (32 μM) for 18 h. Luminescence was shown as the percentage signal relative to thapsigargin (Tg) (500 nM, 18 h).

Compound | activation at 10 µM [%]
COc1ccc(OCCC(=O)Nc2cnn(CC(=O)N(C)CCOc3ccc(C)cc3)c2)cc1 [Compound 10] | ≥ 50
Cc1ccc(OCCN(C)C(=O)Cn2cnc(NC(=O)CCOc3ccc(F)cc3)c2)cc1 [Compound 16] | ≥ 50
Cc1ccc(OCCN(C)C(=O)Cn2cc(NC(=O)CCc3ccccc3)cn2)cc1 [Compound 25, N-(1-(2-(Methyl(2-(p-tolyloxy)ethyl)amino)-2-oxoethyl)-1H -pyrazol-4-yl)-3-phenylpropanamide hydrochloride] | 30 to 50
Cc1ccc(OCCN(C)C(=O)Cn2cc(NC(=O)Cc3ccccc3)cn2)cc1 [Compound 26, N-Methyl-2-(4-(2-phenylacetamido)-1H-pyrazol-1-yl)-N-(2-(p-tolyloxy)ethypacetamide hydrochloride] | < 30
CN(CCc1ccccc1)C(=O)Cn1cc(NC(=O)CCOc2ccccc2)cn1 [Compound 27, N-(1-(2-(methyl(phenethyl)amino)-2-oxoethyl)-1H-pyrazol-4-yl) -3-phenoxypropanamide hydrochloride] | < 30
CN(C(=O)Cn1cc(NC(=O)CCOc2ccccc2)cn1)c1ccccc1 [Compound 28, N-(1-(2-(Methyl(phenyl)amino)-2-oxoethyl)-1H-pyrazol-4-yl)-3-phenoxypropanamide hydrochloride] | < 30
CN(CCOc1ccccc1)C(=O)Cn1cc(NC(=O)CCOc2ccccc2)cn1 [Compound 29, N-(1-(2-(Methyl(2-phenoxyethyl)amino)-2-oxoethyl)-1H-pyrazol-4-yl)-3-phenoxypropanamide hydrochloride] | < 30
CN(CCOc1ccc(C(F)(F)F)cc1)C(=O)Cn1cc(NC(=O)CCOc2ccccc2)cn1 [Compound 30, N-(1-(2-(Methyl(2-(4-(trifluoromethyl)phenoxy)ethyl)amino)-2-oxoethyl)-1H-pyrazol-4-yl)-3-phenoxypropanamide hydrochloride] | ≥ 50
CN(CCCc1ccc(C(F)(F)F)cc1)C(=O)Cn1cc(NC(=O)CCOc2ccccc2)cn1 [Compound 31] | < 30
Cc1ccc(OCCN(C)C(=O)Cn2cc(NC(=O)CCOc3ccccc3F)cn2)cc1 [Compound 34] | ≥ 50
Cc1ccc(OCCN(C)C(=O)Cn2cc(NC(=O)CCOc3ccc(CO)cc3)cn2)cc1 [Compound 35] | ≥ 50
Cc1ccc(OCCN(C)C(=O)Cn2cc(NC(=O)CCOc3cccc(F)c3)cn2)cc1 [Compound 36] | ≥ 50
Cc1ccc(OCCN(C)C(=O)Cn2cc(NC(=O)CCOc3ccc(N)cc3)cn2)cc1 [Compound 37] | ≥ 50
CN(CCOc1ccccn1)C(=O)Cn1cc(NC(=O)CCOc2ccccc2)cn1 [Compound 38] | < 30
CN(CCOc1ccc(C(F)(F)F)cn1)C(=O)Cn1cc(NC(=O)CCOc2ccccc2)cn1 [Compound 39] | 30 to 50
CN(CCOc1ccc(C2(C(F)(F)F)N=N2)cc1)C(=O)Cn1cc(NC(=O)CCOc2ccccc2)cn1 [Compound 40] | < 30
Cc1ccc(OCCNC(=O)Cn2cc(NC(=O)CCOc3ccccc3)cn2)cc1 [Compound 41] | < 30
COc1ccc(OCCNC(=O)Cn2cc(NC(=O)CCOc3ccccc3)cn2)cc1 [Compound 42] | < 30
Cc1ccc(CN(C)C(=O)Cn2cc(NC(=O)CCOc3ccccc3)cn2)cc1 [Compound 43] | < 30
Cc1ccc(OCCN(C)C(=O)Cn2cc(NC(=O)COc3ccccc3)cn2)cc1 [Compound 44] | 30 to 50
Cc1ccc(OCCN(C)C(=O)Cn2cc(NC(=O)CCOc3ccc(Cl)cc3)cn2)cc1 [Compound 45] | 30 to 50
Cc1ccc(OCCN(C)C(=O)C(C)n2cc(NC(=O)CCOc3ccccc3)cn2)cc1 (centres unmarked) [Compound 46] | 30 to 50
Cc1ccc(OCCN(C)C(=O)Cn2nc(C)c(NC(=O)CCOc3ccccc3)c2C)cc1 [Compound 47] | < 30
Cc1ccc(OCCN(C)C(=O)Cn2ccc(NC(=O)CCOc3ccccc3)n2)cc1 [Compound 50, N-(1-(2-(methyl(2-(p-tolyloxy)ethyl)amino)-2-oxoethyl)-1H -pyrazol-3-yl)-3-phenoxypropanamide] | < 30
COc1ccc(OCCC(=O)Nc2ccn(CC(=O)N(C)CCOc3ccc(C)cc3)n2)cc1 [Compound 51] | < 30
Cc1ccc(OCCN(C)C(=O)Cn2cc(NC(=O)CCCc3ccccc3)cn2)cc1 [Compound 53] | 30 to 50
